We go through 10 compounds from PubChem BioAssay (NCI).

Several values for one entry are separate records, joined by “and”; a condition that tells them apart may be missing. Equal values may be shown once.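 Test compounds were applied to cells in 96-well plates for 48 hours at 5 doses. The concentration for 50% growth inhibition is given as GI50. Definition used: TGI = concentration required for complete inhibition of growth.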 Where only a bound is given, the exact number is not on record here.

Test in all cases: NCI anticancer screen, dose series, 48 h
Assay [1] relates to SF-268 CNS.
Assay [2] concerns MCF7 breast.
The subject of assay [3] is CCRF-CEM leukemia.
The test system of assay [4] is MDA-MB-231 breast.
In assay [5] the test system is PC-3 prostate.
The subject of assay [6] is EKVX NSCLC.
Assay [7] has as its system HS 578T breast.
The test system of assay [8] is OVCAR-3 ovarian.

Consider `C=C1C(O)C2C(=C(CCc3ccccc3)C13CC3)C(=O)C(C)(CO)C2O` (centres undefined), for which the GI50 in assay [1] is over 100 µM; in assay [2] it was 53.5 µM; in assay [3], over 100 µM; in assay [4] it was over 100 µM; in assay [5], over 100 µM; in assay [6] it was over 100 µM. The GI50 in assay [7] is 14.3 µM; in assay [8], over 100 µM. Moreover, the TGI in assay [1], in assay [2], in assay [3], in assay [4], in assay [5] and in assay [6] was over 100 µM each time. The TGI is 99.8 µM in assay [7] and over 100 µM in assay [8].

Consider `O=C(CC(c1ccccc1)c1c(O)c2ccccc2oc1=O)c1ccccc1` (centres undefined), for which the TGI in assay [1], in assay [2], in assay [3], in assay [4], in assay [5] and in assay [6] was over 100 µM throughout. The TGI in assay [7] is over 100 µM; in assay [8], over 81.9 µM.

On to `Cc1cnc(NC(=O)Nc2cc(Br)c(C)cc2OC[C@@H]2CNCCO2)cn1`, for which the GI50 in assay [1] is 3.66 µM and 2.33 µM; in assay [2] it was 0.431 µM and 0.418 µM; in assay [3], 0.321 µM and 0.259 µM; in assay [4] it was 2.96 µM and 1.48 µM; in assay [5], 5.77 µM and 3.73 µM; in assay [6], 3.22 µM and 3.24 µM. For the same compound, the GI50 in assay [7] was 0.572 µM and 0.771 µM; in assay [8], 1.37 µM and 1.13 µM. Also, the TGI in assay [1] was > 10 µM and 13.6 µM; in assay [2], > 10 µM and 6.15 µM; in assay [3] it was 9.48 µM and 1.23 µM; in assay [4] it was > 10 µM and 7.39 µM; in assay [5], > 10 µM and 16.4 µM; in assay [6] it was > 10 µM and 15.9 µM. Moreover, the TGI in assay [7] was > 10 µM and 8.82 µM; in assay [8], > 10 µM and 10.2 µM.

Take `Cc1ccc(C)c2c1C(O)(C#Cc1ccccc1)c1ccccc1C2(O)C#Cc1ccccc1` (centres undefined): the GI50 in assay [1] was 3.65 µM; in assay [2] it was 2.47 µM; in assay [3], 2.36 µM; in assay [4], 2.84 µM; in assay [5] it was 2.42 µM; in assay [6] it was 3.36 µM. Further, the GI50 in assay [7] is 3.4 µM; in assay [8], 3.12 µM. The TGI in assay [1] is over 100 µM; in assay [2] it was over 100 µM; in assay [3], over 25.4 µM; in assay [4], over 100 µM; in assay [5] it was over 23.7 µM; in assay [6], over 29 µM. Besides, the TGI in assay [7] is over 100 µM; in assay [8], over 34.7 µM.

Turning to `CN[C@H]1C=C[C@@H]2/C=C(C)/C=C/[C@@H](C)[C@H]([C@H](C)[C@H](O)[C@@H](C)NC(C)=O)OC(=O)/C=C/C=C(C)\C=C\[C@]2(C)C1`, the GI50 is 0.0821 µM and 0.042 µM in assay [1]; < 0.001 µM and 0.0049 µM in assay [2]; 6.16 µM in assay [3]; 0.0049 µM in assay [4]; 0.0049 µM in assay [5]; 0.0597 µM and 0.0123 µM in assay [7]. Further, the TGI in assay [1] was over 49 µM; in assay [2] it was over 49 µM; in assay [3] it was over 49 µM; in assay [4], 9.97 µM; in assay [5], over 49 µM; in assay [6] it was over 49 µM. Also, the values for the TGI in assay [7] and in assay [8] were over 49 µM and 46.7 µM, respectively.

Regarding `CCc1cccc(C)c1NC(=O)c1sc2nc3c(cc2c1N)CCCCC3`, the GI50 in assay [1] is 7.69 µM; in assay [2] it was 1.86 µM; in assay [3] it was 2.68 µM; in assay [4], 4.35 µM; in assay [5], 3.19 µM; in assay [6], 4.17 µM. The GI50 is 4.87 µM in assay [7] and 2.56 µM in assay [8]. Further, the TGI in assay [1], in assay [2], in assay [3], in assay [4], in assay [5] and in assay [6] was over 100 µM throughout. Further, the TGI in assay [7] is over 100 µM; in assay [8] it was 9.02 µM.

Turning to `CN(C)CCCOc1ccc(-c2ccc3ncc4c(c3c2)n(C2CCOCC2)c(=O)n4C)cn1`, the GI50 in assay [1] is 2.04 µM; in assay [2], 0.545 µM; in assay [3], 3.02 µM; in assay [4], 1.31 µM; in assay [5], 0.861 µM; in assay [6], 0.975 µM. Further, the GI50 is 0.902 µM in assay [7] and 1.34 µM in assay [8]. Besides, the TGI turned out to be 29.5 µM in assay [1]; 14.5 µM in assay [2]; 22.7 µM in assay [3]; 11.7 µM in assay [4]; 13.8 µM in assay [5]; 12.2 µM in assay [6]. Besides, the TGI worked out at 10.1 µM in assay [7] and 10.3 µM in assay [8].

Consider `CC(C)CCC(=O)c1ccoc1`, for which the TGI in assay [1], in assay [2], in assay [3], in assay [4], in assay [5] and in assay [6] was over 100 µM each time. Besides, the TGI in assay [7] and in assay [8] was over 100 µM in each case.

As for `COC(=O)c1c2c(c[n+]([O-])c1C)C(=O)C=CC2=O`, the GI50 in assay [1] was 2.83 µM; in assay [2], 1.65 µM; in assay [3] it was 2.5 µM; in assay [4] it was 2.01 µM; in assay [5] it was 4.34 µM; in assay [6] it was 1.83 µM. For the same compound, the GI50 in assay [7] was 2.17 µM; in assay [8] it was 0.317 µM. Further, the TGI in assay [1] was 10.7 µM; in assay [2] it was 3.46 µM; in assay [3], 6.57 µM; in assay [4] it was 5.46 µM; in assay [5], 55.1 µM; in assay [6], 4.25 µM. In addition, the values for the TGI in assay [7] and in assay [8] were 6.04 µM and 1.17 µM, respectively.

With `C=C(C)C(=O)O[C@H]1C[C@@]23O[C@@H]2CCC(=C[C@H]2OC(=O)C(=C)[C@H]12)COC3O` (some centres undefined), the TGI in assay [1] is over 100 µM; in assay [2], over 100 µM; in assay [3], 50.1 µM; in assay [4] it was over 100 µM; in assay [5], over 100 µM; in assay [6], over 100 µM. Also, the TGI in assay [7] and in assay [8] was over 100 µM throughout.
